Results published in PubChem BioAssay AID1259407 (Chemical Carcinogenesis Research Information System (CCRIS), 2018).
Calls of active or inactive are those of the source. No rule for the calls is given here.

System: CCRIS mutagenicity, Ames/micronucleus/aberration tests
Assay: CCRIS mutagenicity studies
[1] = Test System: AMES SALMONELLA TYPHIMURIUM, Strain/Indicator: TA98, Metabolic Activation: NONE, Method: STANDARD PLATE
[2] = Test System: AMES SALMONELLA TYPHIMURIUM, Strain/Indicator: TA100, Metabolic Activation: NONE, Method: STANDARD PLATE
[3] = Test System: AMES SALMONELLA TYPHIMURIUM, Strain/Indicator: TA100, Metabolic Activation: RAT, LIVER, S-9, AROCLOR 1254, Method: STANDARD PLATE
[4] = Test System: AMES SALMONELLA TYPHIMURIUM, Strain/Indicator: TA1535, Metabolic Activation: NONE, Method: STANDARD PLATE
[5] = Test System: AMES SALMONELLA TYPHIMURIUM, Strain/Indicator: TA100, Metabolic Activation: S-9, Method: STANDARD PLATE
[6] = Test System: AMES SALMONELLA TYPHIMURIUM, Strain/Indicator: TA1537, Metabolic Activation: NONE, Method: STANDARD PLATE
[7] = Test System: AMES SALMONELLA TYPHIMURIUM, Strain/Indicator: TA1537, Metabolic Activation: S-9, Method: STANDARD PLATE
[8] = Test System: AMES SALMONELLA TYPHIMURIUM, Strain/Indicator: TA98, Metabolic Activation: NONE, Method: PREINCUBATION
[9] = Test System: AMES SALMONELLA TYPHIMURIUM, Strain/Indicator: TA100, Metabolic Activation: NONE, Method: PREINCUBATION

## NC(N)=NCCCC(N)C(=O)O (stereo not given)
Test System: AMES SALMONELLA TYPHIMURIUM, Strain/Indicator: TA98, Metabolic Activation: RAT LIVER S-9, CHLOROPHENE, Method: STANDARD PLATE (COMPOUND HEATED AT 250 DEGREES CELSIUS FOR 20 MIN)
  mutagenic call: active; positive
Test System: Ames Salmonella typhimurium, Strain/Indicator: TA98, Metabolic Activation: Rat, Liver, S9, Aroclor 1254, assay without cofactors, Method: Preincubation
  mutagenic call: inactive; negative
Test System: Ames Salmonella typhimurium, Strain/Indicator: TA98, Metabolic Activation: Rat, Liver, S9, Aroclor 1254, heat inactivated, Method: Preincubation
  mutagenic call: inactive; negative
Test System: Ames Salmonella typhimurium, Strain/Indicator: TA98, Metabolic Activation: Rat, Liver, S9, Aroclor 1254, Method: Preincubation
  mutagenic call: active; positive. statistically significant at 2 highest doses.

## N#CC(Cl)Br (stereo not given)
[1]
  mutagenic call: inactive; negative
Test System: AMES SALMONELLA TYPHIMURIUM, Strain/Indicator: TA98, Metabolic Activation: RAT, LIVER, S-9, AROCLOR 1254, Method: STANDARD PLATE
  mutagenic call: inactive; negative
Test System: AMES SALMONELLA TYPHIMURIUM, Strain/Indicator: TA100, Metabolic Activation: NONE, Method: FLUCTUATION TEST
  mutagenic call: active; positive
[2]
  mutagenic call: inactive; negative
Test System: AMES SALMONELLA TYPHIMURIUM, Strain/Indicator: TA100, Metabolic Activation: RAT, LIVER, S-9, AROCLOR 1254, Method: FLUCTUATION TEST
  mutagenic call: inactive; negative
[3]
  mutagenic call: active; positive
[4]
  mutagenic call: active; positive
Test System: AMES SALMONELLA TYPHIMURIUM, Strain/Indicator: TA1535, Metabolic Activation: RAT, LIVER, S-9, AROCLOR 1254, Method: STANDARD PLATE
  mutagenic call: active; positive

## NC(=O)OCc1ccccc1
Test System: E. COLI, Strain/Indicator: WP2 UVRA, Metabolic Activation: NONE, Method: FLUCTUATION TEST
  mutagenic call: inactive; negative

## Cc1ccc2ccccc2n1
[3]
  mutagenic call: active; positive
Test System: AMES SALMONELLA TYPHIMURIUM, Strain/Indicator: TA100, Metabolic Activation: RAT, LIVER, S-9, PHENOBARBITAL AND 5,6-BENZOFLAVONE, Method: PREINCUBATION
  mutagenic call: active; positive
Test System: AMES SALMONELLA TYPHIMURIUM, Strain/Indicator: TA100, Metabolic Activation: RAT, LIVER, S-9, PHENOBARBITAL AND 5,6-NAPHTHOFLAVONE, Method: PREINCUBATION
  mutagenic call: active; positive
Test System: AMES SALMONELLA TYPHIMURIUM, Strain/Indicator: TA100, Metabolic Activation: RAT, LIVER, S-9, Method: PREINCUBATION
  mutagenic call: inactive; negative
Test System: UDS RODENT HEPATOCYTES, Strain/Indicator: THY INCORP (NON-S-PHASE), Metabolic Activation: NONE, Method: AUTORADIOGRAPHY
  mutagenic call: inactive; negative

## C#CCOCCn1cc[n+](C)c1/C=N/O
Test System: AMES SALMONELLA TYPHIMURIUM, Strain/Indicator: TA97, Metabolic Activation: NONE, Method: STANDARD PLATE
  mutagenic call: inactive; negative
Test System: AMES SALMONELLA TYPHIMURIUM, Strain/Indicator: TA97, Metabolic Activation: S-9, Method: STANDARD PLATE
  mutagenic call: inactive; negative
[2]
  mutagenic call: inactive; negative
[5]
  mutagenic call: inactive; negative
Test System: AMES SALMONELLA TYPHIMURIUM, Strain/Indicator: TA104, Metabolic Activation: NONE, Method: STANDARD PLATE
  mutagenic call: inactive; negative
Test System: AMES SALMONELLA TYPHIMURIUM, Strain/Indicator: TA104, Metabolic Activation: S-9, Method: STANDARD PLATE
  mutagenic call: inactive; negative
[6]
  mutagenic call: inactive; negative
[7]
  mutagenic call: inactive; negative
Test System: AMES SALMONELLA TYPHIMURIUM, Strain/Indicator: TA1538, Metabolic Activation: NONE, Method: STANDARD PLATE
  mutagenic call: inactive; negative
Test System: AMES SALMONELLA TYPHIMURIUM, Strain/Indicator: TA1538, Metabolic Activation: S-9, Method: STANDARD PLATE
  mutagenic call: inactive; negative

## O=C(Oc1ccccc1)c1ccccc1O
Test System: AMES SALMONELLA TYPHIMURIUM, Strain/Indicator: TA98, Metabolic Activation: HAMSTER, LIVER, S-9, AROCLOR 1254 (10%), Method: PREINCUBATION
  mutagenic call: inactive; negative
[8]
  mutagenic call: inactive; negative
Test System: AMES SALMONELLA TYPHIMURIUM, Strain/Indicator: TA98, Metabolic Activation: RAT, LIVER, S-9, AROCLOR 1254 (10%), Method: PREINCUBATION
  mutagenic call: inactive; negative
Test System: AMES SALMONELLA TYPHIMURIUM, Strain/Indicator: TA100, Metabolic Activation: HAMSTER, LIVER, S-9, AROCLOR 1254 (10%), Method: PREINCUBATION
  mutagenic call: inactive; negative
[9]
  mutagenic call: inactive; negative
Test System: AMES SALMONELLA TYPHIMURIUM, Strain/Indicator: TA100, Metabolic Activation: RAT, LIVER, S-9, AROCLOR 1254 (10%), Method: PREINCUBATION
  mutagenic call: inactive; negative
Test System: AMES SALMONELLA TYPHIMURIUM, Strain/Indicator: TA1535, Metabolic Activation: HAMSTER, LIVER, S-9, AROCLOR 1254 (10%), Method: PREINCUBATION
  mutagenic call: inactive; negative
Test System: AMES SALMONELLA TYPHIMURIUM, Strain/Indicator: TA1535, Metabolic Activation: NONE, Method: PREINCUBATION
  mutagenic call: inactive; negative
Test System: AMES SALMONELLA TYPHIMURIUM, Strain/Indicator: TA1535, Metabolic Activation: RAT, LIVER, S-9, AROCLOR 1254 (10%), Method: PREINCUBATION
  mutagenic call: inactive; negative
Test System: AMES SALMONELLA TYPHIMURIUM, Strain/Indicator: TA1537, Metabolic Activation: HAMSTER, LIVER, S-9, AROCLOR 1254 (10%), Method: PREINCUBATION
  mutagenic call: inactive; negative
Test System: AMES SALMONELLA TYPHIMURIUM, Strain/Indicator: TA1537, Metabolic Activation: NONE, Method: PREINCUBATION
  mutagenic call: inactive; negative
Test System: AMES SALMONELLA TYPHIMURIUM, Strain/Indicator: TA1537, Metabolic Activation: RAT, LIVER, S-9, AROCLOR 1254 (10%), Method: PREINCUBATION
  mutagenic call: inactive; negative

## Cc1cccc(C)c1[N+](=O)[O-]
[8]
  mutagenic call: inactive; negative
Test System: AMES SALMONELLA TYPHIMURIUM, Strain/Indicator: TA98, Metabolic Activation: RAT, LIVER, S-9, KANECHLOR 500, Method: PREINCUBATION
  mutagenic call: inactive; negative
[9]
  mutagenic call: inactive; negative
Test System: AMES SALMONELLA TYPHIMURIUM, Strain/Indicator: TA100, Metabolic Activation: RAT, LIVER, S-9, KANECHLOR 500, Method: PREINCUBATION
  mutagenic call: inactive; negative

## CC(C)COP(=S)(OCC(C)C)SCCl
Test System: AMES SALMONELLA TYPHIMURIUM, Strain/Indicator: TA98, Metabolic Activation: NONE
  mutagenic call: inactive; negative
[1]
  mutagenic call: inactive; negative
Test System: AMES SALMONELLA TYPHIMURIUM, Strain/Indicator: TA98, Metabolic Activation: RAT, LIVER, S-9, SODIUM PHENOBARBITAL, Method: STANDARD PLATE
  mutagenic call: inactive; negative
Test System: AMES SALMONELLA TYPHIMURIUM, Strain/Indicator: TA98, Metabolic Activation: S-9
  mutagenic call: inactive; negative
Test System: AMES SALMONELLA TYPHIMURIUM, Strain/Indicator: TA100, Metabolic Activation: NONE
  mutagenic call: inactive; negative
[2]
  mutagenic call: inactive; negative
Test System: AMES SALMONELLA TYPHIMURIUM, Strain/Indicator: TA100, Metabolic Activation: RAT, LIVER, S-9, SODIUM PHENOBARBITAL, Method: STANDARD PLATE
  mutagenic call: inactive; negative
Test System: AMES SALMONELLA TYPHIMURIUM, Strain/Indicator: TA100, Metabolic Activation: S-9
  mutagenic call: inactive; negative
Test System: E. COLI, Strain/Indicator: WP2, Metabolic Activation: NONE
  mutagenic call: inactive; negative
Test System: E. COLI, Strain/Indicator: WP2, Metabolic Activation: RAT, LIVER, S-9, SODIUM PHENOBARBITAL, Method: STANDARD PLATE
  mutagenic call: inactive; negative
Test System: E. COLI, Strain/Indicator: WP2, Metabolic Activation: S-9
  mutagenic call: inactive; negative
Test System: E. COLI, Strain/Indicator: WP2 UVRA, Metabolic Activation: NONE
  mutagenic call: inactive; negative
Test System: E. COLI, Strain/Indicator: WP2 UVRA, Metabolic Activation: RAT, LIVER, S-9, SODIUM PHENOBARBITAL, Method: STANDARD PLATE
  mutagenic call: inactive; negative
Test System: E. COLI, Strain/Indicator: WP2 UVRA, Metabolic Activation: S-9
  mutagenic call: inactive; negative

## CCCCCCC1CO1 (stereo not given)
[2]
  mutagenic call: inactive; negative
[4]
  mutagenic call: inactive; negative
Test System: UDS RAT HEPATOCYTES, Strain/Indicator: THY INCORP, Metabolic Activation: NONE
  mutagenic call: inactive; negative

## CCCC(=O)Nc1snc2cc(Cl)ccc12
[2]
  mutagenic call: inactive; negative
[5]
  mutagenic call: inactive; negative
[6]
  mutagenic call: inactive; negative
[7]
  mutagenic call: inactive; negative
